Assay results as given in PMC12157126, “Saturation kinetics and specificity of transporters for L-arginine and asymmetric dimethylarginine (ADMA) at the blood-brain and blood-CSF barriers” (PLOS One, 2025).
“And” between values parts separate entries of the source, which are not always exact repeats. Identical values can stand only once. Like-named read-outs stand apart in the source and are kept apart here.

Columns and labels:
[1] = test system: blood-brain and blood-CSF barriers; test: In situ brain/choroid plexus perfusion with capillary depletion: CNS uptake of [3H]-arginine in absence and presence of transporter inhibitors; format: in vivo, adult male BALB/c mice; details: 4 mM BCH or 500 μM α-methyl-D,L-tryptophan; for effect on [3H]-arginine uptake: majority of brain regions sampled
Description: (§1) The in situ brain/choroid plexus perfusion method was performed as previously described and will only be briefly detailed here. […] At the end of the perfusion period a CSF sample was taken from the cisterna magna, the animal was decapitated, the brain removed and samples taken under a Leica S4E L2 stereomicroscope (Leica; Buckinghamshire, UK). […] The circumventricular organs (CVOs) including the choroid plexus, pituitary gland and pineal gland were also sampled. Brain samples were also taken for capillary depletion analysis.
(§2) Both the physiological capillary depletion buffer and dextran solution were maintained at 4 °C to halt any cell metabolism and transport processes, and to reduce any cellular or protein damage due to heat generated from the homogenisation process. The whole brain homogenate was then taken for dextran density centrifugation (5,400 x g) and 4 °C to produce an endothelial cell-enriched pellet and supernatant containing brain parenchyma.
(§3) The transporter proteins these inhibitors target are listed in S1 Table in S1 File.
(§4) % change=RTissue−RInhibition /RTissue× 100 (2)

[2] = test system: blood-brain and blood-CSF barriers; test: In situ brain/choroid plexus perfusion with capillary depletion: CNS uptake of [3H]-ADMA in absence and presence of transporter inhibitors; details: for % inhibition of [3H]-ADMA uptake: L-homoarginine 20 mM, BCH 4 mM, L-phenylalanine 200 μM, L-leucine 5 mM, harmaline 2 mM; for RBrain, [3H]-ADMA alone: 10 min perfusion, mean±SEM; for RBrain, [3H]-ADMA alone / uptake of [3H]-ADMA: [14C]-sucrose corrected; for uptake of [3H]-ADMA: S14 Fig
Description: as §1, §2, §3, §4

[3] = test system: blood-brain and blood-CSF barriers; test: Self-inhibition experiments: [3H]-ADMA uptake with 0.5-500 μM unlabelled ADMA and kinetic constants (Km, Vmax, Kd); format: in vivo, adult male BALB/c mice; details: for Km: read-out: Km (half-saturation constant) of [3H]-ADMA influx
Description: At the end of the perfusion period a CSF sample was taken from the cisterna magna, the animal was decapitated, the brain removed and samples taken under a Leica S4E L2 stereomicroscope (Leica; Buckinghamshire, UK). The samples included the frontal cortex, caudate nucleus, occipital cortex, hippocampus, hypothalamus, thalamus, pons and cerebellum. The circumventricular organs (CVOs) including the choroid plexus, pituitary gland and pineal gland were also sampled. Brain samples were also taken for capillary depletion analysis.
A series of single-time point experiments involved varying the unlabelled concentration of ADMA in the artificial plasma and measuring the [^3H]-ADMA uptake into the brain regions, capillary depletion samples, CVOs and CSF after 10 min of perfusion. […] This enabled calculation of the kinetic constants; Vmax (the maximal influx rate of the saturable component), Km (the half-saturation constant) and Kd (the constant of non-saturable diffusion).
In the case where the uptake of the radiolabelled test amino acid is examined in the presence of various unlabelled concentrations of the same test solute, Kin, can be defined as in equation 4:
Kin= Vmax/Km+ Cpl+ Kd (5)
Unidirectional ADMA flux (Jin) into the brain (nmol.min^-1.g^-1) and CSF (nmol.min^-1.ml^-1) was determined using equations 6 and 7:
Jin=VmaxCpl/Km+ Cpl+ KdCpl (8)
This constant of non-saturable diffusion was then used to calculate a non-saturable flux which could be subtracted from the total flux to determine the saturable flux. […] In some cases, there was no measurable non-saturable component and so estimates of Vmax and Km were obtained from plots of total flux, which was equal to the saturable flux.

[4] = CSF, choroid plexus and pituitary gland
[5] = homogenate, supernatant, pellet
[6] = brain and choroid plexus (up to), system B0,+ inhibitors
[7] = brain homogenate or supernatant
[8] = caudate nucleus, α-methyl-D,L-tryptophan 500 μM
[9] = occipital cortex, α-methyl-D,L-tryptophan 500 μM
[10] = pineal gland, α-methyl-D,L-tryptophan 500 μM

Structure (SMILES): CC(N)(Cc1c[nH]c2ccccc12)C(=O)O (racemic) [α-methyl-D,L-tryptophan, reference compound]
- effect on [3H]-arginine distribution [1, 4]: no statistically significant effect
- effect on [3H]-arginine distribution [1, 5]: no significant effect
- effect on [3H]-arginine uptake [1]: did not significantly affect
- inhibition of [3H]-ADMA uptake [2, 6]: up to 50.0%
- effect on [3H]-ADMA uptake [2, 7]: did not significantly affect
- % inhibition of [3H]-ADMA uptake [2, 8]: 49.1%
- % inhibition of [3H]-ADMA uptake ([2]; frontal cortex, α-methyl-D,L-tryptophan 500 μM): 48.0%
- % inhibition of [3H]-ADMA uptake [2, 9]: 45.5%
- % inhibition of [3H]-ADMA uptake [2, 10]: 80.6%

Structure (SMILES): NC1(C(=O)O)CC2CCC1C2 (stereo not drawn) [BCH, 2-amino-endo-bicyclo[2.2.1]heptane-2-carboxylic acid, reference compound]
- effect on [3H]-arginine distribution [1, 4]: no statistically significant effect
- effect on [3H]-arginine distribution [1, 5]: no significant effect
- effect on [3H]-arginine uptake [1]: did not significantly affect
- inhibition of [3H]-ADMA uptake [2, 6]: up to 50.0%
- effect on [3H]-ADMA uptake [2, 7]: did not significantly affect
- % inhibition of [3H]-ADMA uptake [2, 8]: 37.5%
- % inhibition of [3H]-ADMA uptake ([2]; choroid plexus): 50.0%
- % inhibition of [3H]-ADMA uptake ([2]; hippocampus, α-methyl-D,L-tryptophan 500 μM): 36.6%
- % inhibition of [3H]-ADMA uptake ([2]; hypothalamus, α-methyl-D,L-tryptophan 500 μM): 36.8%
- % inhibition of [3H]-ADMA uptake [2, 9]: 34.2%
- % inhibition of [3H]-ADMA uptake [2, 10]: 65.6%
- % inhibition of [3H]-ADMA uptake ([2]; pituitary gland): 61.5%

Structure (SMILES): COc1ccc2c3c([nH]c2c1)C(C)=NCC3 [Harmaline, harmaline, reference compound]
- effect on [3H]-ADMA uptake ([2]; brain and choroid plexus): significantly inhibited
- effect on [3H]-ADMA uptake [2, 7]: did not significantly affect

Structure (SMILES): N[C@@H](Cc1ccccc1)C(=O)O [L-phenylalanine, reference compound]
- inhibition of [3H]-ADMA uptake ([2]; phenylalanine, some regions of the brain and the choroid plexus (up to)): up to 66.4%

Structure (SMILES): CN(C)C(N)=NCCC[C@H](N)C(=O)O [[^3H]-ADMA, asymmetric dimethylarginine]
- non-saturable component of [3H]-ADMA flux ([3]; CSF): no non-saturable component
- Vmax (maximal influx rate of the saturable component) of [3H]-ADMA ([3]; CSF, from total flux): 2.07 ± 0.38 nmol/min/g and 2.067 ± 0.38 nmol/min/g
- Km ([3]; CSF, from total flux): 30.6 ± 25.4 µM
- Kd (constant of non-saturable diffusion) of [3H]-ADMA ([3]; caudate nucleus): 2.82 µL/min/g
- Vmax (maximal influx rate of the saturable component) of [3H]-ADMA ([3]; caudate nucleus): 0.423 ± 0.061 nmol/min/g
- Km ([3]; caudate nucleus, saturable flux, sucrose space increased at 500 µM ADMA): 25.2 ± 16.6 µM
- Kd (constant of non-saturable diffusion) of [3H]-ADMA ([3]; cerebellum): 5.20 µL/min/g
- Vmax (maximal influx rate of the saturable component) of [3H]-ADMA ([3]; cerebellum): 0.235 ± 0.011 nmol/min/g
- Km ([3]; cerebellum, saturable flux, sucrose space increased at 500 µM ADMA): 24.7 ± 5.32 µM
- RTissue ([3]; choroid plexuses, pituitary gland and pineal gland, 10 minutes): > 100%
- Vmax (maximal influx rate of the saturable component) of [3H]-ADMA ([3]; frontal cortex): 0.307 ± 0.017 nmol/min/g
- Km ([3]; frontal cortex, saturable flux): 29.1 ± 7.19 µM
- Kd (constant of non-saturable diffusion) of [3H]-ADMA ([3]; frontal cortex, slope of total flux at 100 and 500 μM): 4.40 µL/min/g
- Kd (constant of non-saturable diffusion) of [3H]-ADMA ([3]; hippocampus): 3.23 µL/min/g
- Vmax (maximal influx rate of the saturable component) of [3H]-ADMA ([3]; hippocampus): 0.24 ± 0.02 nmol/min/g
- Km ([3]; hippocampus, saturable flux, sucrose space increased at 500 µM ADMA): 15.8 ± 6.86 µM
- Kd (constant of non-saturable diffusion) of [3H]-ADMA ([3]; homogenate): 3.34 µL/min/g
- Vmax (maximal influx rate of the saturable component) of [3H]-ADMA ([3]; homogenate): 0.155 ± 0.013 nmol/min/g
- Km ([3]; homogenate, saturable flux): 13.6 ± 5.26 µM
- Kd (constant of non-saturable diffusion) of [3H]-ADMA ([3]; hypothalamus): 5.18 µL/min/g
- Vmax (maximal influx rate of the saturable component) of [3H]-ADMA ([3]; hypothalamus): 0.482 ± 0.049 nmol/min/g
- Km ([3]; hypothalamus, saturable flux): 23.2 ± 10.8 µM
- Kd (constant of non-saturable diffusion) of [3H]-ADMA ([3]; occipital cortex): 4.65 µL/min/g
- Vmax (maximal influx rate of the saturable component) of [3H]-ADMA ([3]; occipital cortex): 0.321 ± 0.034 nmol/min/g
- Km ([3]; occipital cortex, saturable flux, sucrose space increased at 500 µM ADMA): 25.9 ± 12.6 µM
- Kd (constant of non-saturable diffusion) of [3H]-ADMA ([3]; pellet): 0.38 µL/min/g
- Vmax (maximal influx rate of the saturable component) of [3H]-ADMA ([3]; pellet): 0.071 ± 0.008 nmol/min/g
- Km ([3]; pellet, saturable flux): 34 ± 16.8 µM
- Kd (constant of non-saturable diffusion) of [3H]-ADMA ([3]; pons): 3.62 µL/min/g
- Vmax (maximal influx rate of the saturable component) of [3H]-ADMA ([3]; pons): 0.325 ± 0.043 nmol/min/g
- Km ([3]; pons, saturable flux, sucrose space increased at 500 µM ADMA): 18.2 ± 10.8 µM
- Kd (constant of non-saturable diffusion) of [3H]-ADMA ([3]; supernatant): 2.35 µL/min/g
- Vmax (maximal influx rate of the saturable component) of [3H]-ADMA ([3]; supernatant): 0.208 ± 0.036 nmol/min/g
- Km ([3]; supernatant, saturable flux): 68.5 ± 44.4 µM
- Kd (constant of non-saturable diffusion) of [3H]-ADMA ([3]; thalamus): 4.33 µL/min/g
- Vmax (maximal influx rate of the saturable component) of [3H]-ADMA ([3]; thalamus): 0.278 ± 0.033 nmol/min/g
- Km ([3]; thalamus, saturable flux, sucrose space increased at 500 µM ADMA): 18.5 ± 9.89 µM
- uptake into pellet, times lower than into choroid plexus ([2]; 10 minutes): 124.2 times
- RBrain, [3H]-ADMA alone ([2]; CSF): 26.72±8.84 ml.100g^-1
- RBrain, [3H]-ADMA alone ([2]; caudate nucleus): 24.07±2.92 ml.100g^-1
- RBrain, [3H]-ADMA alone ([2]; cerebellum): 17.65±1.52 (n=4) ml.100g^-1
- RBrain, [3H]-ADMA alone ([2]; choroid plexus): 260.9±42.45 ml.100g^-1
- uptake of [3H]-ADMA ([2]; choroid plexus, 10 minutes): 260.85 ± 42.45 ml.100g^-1
- RBrain, [3H]-ADMA alone ([2]; frontal cortex): 24.94±3.50 ml.100g^-1
- uptake of [3H]-ADMA ([2]; frontal cortex, 10 minutes): 24.94 ± 3.50 ml.100g^-1
- RBrain, [3H]-ADMA alone ([2]; hippocampus): 21.74±1.75 ml.100g^-1
- RBrain, [3H]-ADMA alone ([2]; homogenate (capillary depletion)): 17.70±3.10 (n=4) ml.100g^-1
- RBrain, [3H]-ADMA alone ([2]; hypothalamus): 30.42 ± 2.98 ml.100g^-1
- RBrain, [3H]-ADMA alone ([2]; occipital cortex): 22.52±1.65 ml.100g^-1
- RBrain, [3H]-ADMA alone ([2]; pellet (capillary depletion)): 2.62±0.88 (n=4) ml.100g^-1
- RBrain, [3H]-ADMA alone ([2]; pineal gland): 194.1±48.46 ml.100g^-1
- RBrain, [3H]-ADMA alone ([2]; pituitary gland): 182.9±32.28 ml.100g^-1
- RBrain, [3H]-ADMA alone ([2]; pons): 24.64±3.44 ml.100g^-1
- RBrain, [3H]-ADMA alone ([2]; supernatant (capillary depletion)): 10.03 ± 1.06 (n=4) ml.100g^-1
- RBrain, [3H]-ADMA alone ([2]; thalamus): 21.09±1.74 ml.100g^-1
